Where two headings read alike, the source gives them in different places.
Tests used:
SF-539 = test: NCI 60 one dose screen; type: cell-based, human; conditions: one dose; CNS Cancer; SF-539
[1] = test system: 60 different human tumor cell lines; test: NCI Development Therapeutics Program 60 cell line screen, one dose; type: cell-based
[2] = test system: 60 different human tumor cell lines; test: cells
glioblastoma (SF-295) = test: NCI 60 five dose screen

For `C[C@]12CCc3sc(Nc4ccc(F)cc4F)nc3C1=CC[C@@H]1[C@@H]2CC[C@]2(C)C(=O)CC[C@@H]12` [IIa.10, (1S,2R,13R,14S,18S)-7-(2,4-difluoroanilino)-2,18-dimethyl-6-thia-8-azapentacyclo[11.7.0.02,10.05,9.014,18]icosa-5(9),7,10-trien-17-one], the “Growth Percent” value (SF-539) was 49.60%, the “Growth Percent” value ([1]; Breast Cancer, BT-549) was 59.58% and the “Growth Percent” value ([1]; Breast Cancer, HS 578T) was 55.28%. The “Growth Percent” value ([1]; Breast Cancer, MCF7) was 14.62%, the “Growth Percent” value ([1]; Breast Cancer, MDA-MB-231/ATCC) was 76.10% and the “Growth Percent” value ([1]; Breast Cancer, MDA-MB-468) was 23.25%. For the same compound, the “Growth Percent” value ([1]; Breast Cancer, T-47D) was 48.94%, the “Growth Percent” value ([1]; CNS Cancer, SF-268) was 70.67% and the “Growth Percent” value ([1]; CNS Cancer, SNB-19) was 74.13%. The “Growth Percent” value ([1]; CNS Cancer, SNB-75) was 69.43%, the “Growth Percent” value ([1]; CNS Cancer, U251) was 40.73% and the “Growth Percent” value ([1]; Colon Cancer, COLO 205) was 54.33%. For the same compound, the “Growth Percent” value ([1]; Colon Cancer, HCC-2998) was 71.64%, the “Growth Percent” value ([1]; Colon Cancer, HCT-116) was −23.35% and the “Growth Percent” value ([1]; Colon Cancer, HT29) was 30.06%. The “Growth Percent” value ([1]; Colon Cancer, KM12) was 57.14%, the “Growth Percent” value ([1]; Colon Cancer, SW-620) was 7.16% and the “Growth Percent” value ([1]; Leukemia, CCRF-CEM) was 10.07%. The “Growth Percent” value ([1]; Leukemia, HL-60(TB)) was 21.35%, the “Growth Percent” value ([1]; Leukemia, K-562) was 2.15% and the “Growth Percent” value ([1]; Leukemia, MOLT-4) was 3.63%. The “Growth Percent” value ([1]; Leukemia, RPMI-8226) was −20.85%, the “Growth Percent” value ([1]; Leukemia, SR) was “.71%” and the “Growth Percent” value ([1]; Melanoma, LOX IMVI) was −49.65%. For the same compound, the “Growth Percent” value ([1]; Melanoma, M14) was 57.76%, the “Growth Percent” value ([1]; Melanoma, MALME-3M) was 69.51% and the “Growth Percent” value ([1]; Melanoma, MDA-MB-435) was 51.52%. The “Growth Percent” value ([1]; Melanoma, SK-MEL-2) was 76.42%, the “Growth Percent” value ([1]; Melanoma, SK-MEL-5) was 76.86% and the “Growth Percent” value ([1]; Melanoma, SK-MEL-28) was 84.36%. The “Growth Percent” value ([1]; Melanoma, UACC-62) was 67.65%, the “Growth Percent” value ([1]; Melanoma, UACC-257) was 71.94% and the “Growth Percent” value ([1]; Non-small Cell Lung Cancer, A549/ATCC) was 61.70%. The “Growth Percent” value ([1]; Non-small Cell Lung Cancer, EKVX) was 78.36%, the “Growth Percent” value ([1]; Non-small Cell Lung Cancer, HOP-62) was 87.08% and the “Growth Percent” value ([1]; Non-small Cell Lung Cancer, HOP-92) was 77.08%. For the same compound, the “Growth Percent” value ([1]; Non-small Cell Lung Cancer, NCI-H23) was 66.21%, the “Growth Percent” value ([1]; Non-small Cell Lung Cancer, NCI-H226) was 84.23% and the “Growth Percent” value ([1]; Non-small Cell Lung Cancer, NCI-H322M) was 84.48%. The “Growth Percent” value ([1]; Non-small Cell Lung Cancer, NCI-H460) was 60.86%, the “Growth Percent” value ([1]; Ovarian Cancer, IGROV1) was 62.11% and the “Growth Percent” value ([1]; Ovarian Cancer, NCI/ADR-RES) was 67.57%. For the same compound, the “Growth Percent” value ([1]; Ovarian Cancer, OVCAR-3) was −4.15%, the “Growth Percent” value ([1]; Ovarian Cancer, OVCAR-4) was 66.68% and the “Growth Percent” value ([1]; Ovarian Cancer, OVCAR-5) was 91.77%. For the same compound, the “Growth Percent” value ([1]; Ovarian Cancer, OVCAR-8) was 45.20%, the “Growth Percent” value ([1]; Ovarian Cancer, SK-OV-3) was 84.10% and the “Growth Percent” value ([1]; Prostate Cancer, DU-145) was 24.05%. For the same compound, the “Growth Percent” value ([1]; Prostate Cancer, PC-3) was 52.88%, the “Growth Percent” value ([1]; Renal Cancer, 786-0) was −27.72% and the “Growth Percent” value ([1]; Renal Cancer, A498) was 77.80%. The “Growth Percent” value ([1]; Renal Cancer, ACHN) was 37.67%, the “Growth Percent” value ([1]; Renal Cancer, CAKI-1) was 38.44% and the “Growth Percent” value ([1]; Renal Cancer, RXF 393) was 5.60%. The “Growth Percent” value ([1]; Renal Cancer, SN12C) was 64.13%, the “Growth Percent” value ([1]; Renal Cancer, TK-10) was 50.24% and the “Growth Percent” value ([1]; Renal Cancer, UO-31) was 42.87%. It also gave a CC50 ([2]; 60 cell, read-out: LC50) of over 100 µM, a CC50 ([2]; A498, read-out: LC50) of over 100 µM and a CC50 ([2]; A549, read-out: LC50) of over 100 µM. The GI50 ([2]; ACHN) was 1810 nM, the CC50 ([2]; BT-549, read-out: LC50) was over 100 µM and the CC50 ([2]; CAKI-1, read-out: LC50) was over 100 µM. For the same compound, the GI50 ([2]; CCRF-CEM) was 2640 nM, the CC50 ([2]; CCRF-CEM, read-out: LC50) was over 100 µM and the GI50 ([2]; DU-145) was 1980 nM. For the same compound, the CC50 ([2]; EKVX, read-out: LC50) was over 100 µM, the GI50 ([2]; HCT-15) was 1700 nM and the CC50 ([2]; HCT-15, read-out: LC50) was over 100 µM. The GI50 ([2]; HCT-116) was 1670 nM, the CC50 ([2]; HL-60, read-out: LC50) was over 100 µM and the CC50 ([2]; HOP-62, read-out: LC50) was over 100 µM. For the same compound, the CC50 ([2]; HOP-92, read-out: LC50) was over 100 µM, the GI50 ([2]; HT-29) was 2240 nM and the CC50 ([2]; HT-29, read-out: LC50) was over 100 µM. It also gave a CC50 ([2]; Hs-578T, read-out: LC50) of over 100 µM, a CC50 ([2]; IGROV-1, read-out: LC50) of over 100 µM and a GI50 ([2]; K562) of 2430 nM. For the same compound, the CC50 ([2]; K562, read-out: LC50) was over 100 µM, the GI50 ([2]; LOX IMVI) was 1710 nM and the CC50 ([2]; M14, read-out: LC50) was over 100 µM. The CC50 ([2]; MCF7, read-out: LC50) was over 100 µM, the CC50 ([2]; MDA-MB-231, read-out: LC50) was over 100 µM and the CC50 ([2]; MDA-MB-435, read-out: LC50) was over 100 µM. The GI50 ([2]; MDA-MB-468) was 1750 nM, the GI50 ([2]; MOLT-4) was 2440 nM and the CC50 ([2]; MOLT-4, read-out: LC50) was over 100 µM. It also gave a CC50 ([2]; Malme-3M, read-out: LC50) of over 100 µM, a CC50 ([2]; NCI-H23, read-out: LC50) of over 100 µM and a GI50 ([2]; NCI-H226) of 1830 nM. For the same compound, the CC50 ([2]; NCI-H322M, read-out: LC50) was over 100 µM, the CC50 ([2]; NCI-H460, read-out: LC50) was over 100 µM and the GI50 ([2]; NCI-H522) was 1840 nM. It also gave a CC50 ([2]; NCI/ADR-RES, read-out: LC50) of over 100 µM, a GI50 ([2]; OVCAR-3) of 1900 nM and a CC50 ([2]; OVCAR-4, read-out: LC50) of over 100 µM. It also gave a CC50 ([2]; OVCAR-5, read-out: LC50) of over 100 µM, a GI50 ([2]; OVCAR-8) of 2960 nM and a CC50 ([2]; OVCAR-8, read-out: LC50) of over 100 µM. It also gave a GI50 ([2]; RXF 393) of 1570 nM, a CC50 ([2]; SF-268, read-out: LC50) of over 100 µM and a CC50 ([2]; SK-MEL-2, read-out: LC50) of over 100 µM. It also gave a GI50 ([2]; SK-MEL-5) of 1880 nM, a CC50 ([2]; SK-OV-3, read-out: LC50) of over 100 µM and a CC50 ([2]; SN12C, read-out: LC50) of over 100 µM. The CC50 ([2]; SNB-19, read-out: LC50) was over 100 µM, the CC50 ([2]; SNB-75, read-out: LC50) was over 100 µM and the GI50 ([2]; SW-620) was 2400 nM. The CC50 ([2]; SW-620, read-out: LC50) was over 100 µM, the GI50 ([2]; T47D) was 2250 nM and the CC50 ([2]; T47D, read-out: LC50) was over 100 µM. It also gave a GI50 ([2]; TK-10) of 2800 nM, a CC50 ([2]; TK-10, read-out: LC50) of over 100 µM and a CC50 ([2]; U-251, read-out: LC50) of over 100 µM. The CC50 ([2]; UACC-62, read-out: LC50) was over 100 µM, the CC50 ([2]; UACC-257, read-out: LC50) was over 100 µM and the CC50 (glioblastoma (SF-295); Homo sapiens, SF-295, read-out: LC50) was over 100 µM. For the same compound, the TGI (glioblastoma (SF-295); SF-295 (CNS Cancer), five dose) was over 1.00E−4.

Reference: US20250296953A1, “3,4-THIAZOLO-STEROIDS AND METHODS OF MAKING AND USING THE SAME” (Arkansas State University - Jonesboro, priority 2018, published 2025)
